Assay results from ChEMBL document CHEMBL5442175, “EUbOPEN Chemogenomics Library - PDSP Secondary Binding” (2024).

Assays:
[1] = molecular target: 5-hydroxytryptamine receptor 1D (Homo sapiens, UniProt P28221); experiment: (§1) PDSP Secondary Binding target: HTR1D - Compounds are tested at 10 uM concentration, plate are incubated at room temperature in the dark for 90 minutes. Reaction are stopped by vacuum filtration onto 0.3% polyethyleneimine soaked filter mats using Filtermate harvester. Scintillation cocktail is then melted onto microwave-dried filters on a hot plate and the radio activity is counted in Microbia counter.
[2] = molecular target: Sigma intracellular receptor 2 (Homo sapiens, UniProt Q5BJF2); experiment: as §1, with “TMEM97” for “HTR1D”
[3] = molecular target: Sigma non-opioid intracellular receptor 1 (Homo sapiens, UniProt Q99720); experiment: as §1, with “SIGMAR1” for “HTR1D”
[4] = molecular target: 5-hydroxytryptamine receptor 2B (Homo sapiens, UniProt P41595); experiment: as §1, with “HTR2B” for “HTR1D”
[5] = molecular target: T1, Alpha-2A adrenergic receptor (Homo sapiens, UniProt P08913); experiment: as §1, with “ADRA2A” for “HTR1D”
T1 sequence (P08913 whole entry): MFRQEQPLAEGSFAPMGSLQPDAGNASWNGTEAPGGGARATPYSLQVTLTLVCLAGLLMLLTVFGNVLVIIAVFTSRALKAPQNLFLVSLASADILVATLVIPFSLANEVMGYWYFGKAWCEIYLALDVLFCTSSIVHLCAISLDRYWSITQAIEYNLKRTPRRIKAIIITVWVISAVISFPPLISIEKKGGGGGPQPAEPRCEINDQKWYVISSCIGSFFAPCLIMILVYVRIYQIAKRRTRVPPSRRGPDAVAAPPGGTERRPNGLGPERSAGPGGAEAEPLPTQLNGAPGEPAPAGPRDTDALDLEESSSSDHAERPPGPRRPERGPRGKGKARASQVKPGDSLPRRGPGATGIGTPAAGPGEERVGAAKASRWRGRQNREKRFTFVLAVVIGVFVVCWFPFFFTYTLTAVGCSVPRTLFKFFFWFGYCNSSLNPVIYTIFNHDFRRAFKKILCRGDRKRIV

[6] = molecular target: T2, Alpha-2C adrenergic receptor (Homo sapiens, UniProt P18825); experiment: as §1, with “ADRA2C” for “HTR1D”
T2 sequence (P18825 whole entry): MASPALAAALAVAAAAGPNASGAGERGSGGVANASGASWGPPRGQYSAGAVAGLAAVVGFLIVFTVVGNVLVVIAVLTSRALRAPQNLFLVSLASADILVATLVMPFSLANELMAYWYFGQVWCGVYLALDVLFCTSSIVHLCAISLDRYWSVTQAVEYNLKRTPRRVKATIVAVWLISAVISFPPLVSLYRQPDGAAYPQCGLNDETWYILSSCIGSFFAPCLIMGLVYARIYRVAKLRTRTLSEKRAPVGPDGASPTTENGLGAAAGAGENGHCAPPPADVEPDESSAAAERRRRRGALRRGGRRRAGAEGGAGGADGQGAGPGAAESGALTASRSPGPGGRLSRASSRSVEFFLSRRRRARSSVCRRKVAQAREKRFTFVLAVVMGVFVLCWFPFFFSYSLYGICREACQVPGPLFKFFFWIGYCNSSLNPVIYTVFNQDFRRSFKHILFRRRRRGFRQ

D(3) dopamine receptor = D(3) dopamine receptor (Homo sapiens, UniProt P35462); experiment: as §1, with “DRD3” for “HTR1D”
[7] = molecular target: T3, 5-hydroxytryptamine receptor 2C (Homo sapiens, UniProt P28335); experiment: as §1, with “HTR2C” for “HTR1D”
T3 sequence (P28335 whole entry): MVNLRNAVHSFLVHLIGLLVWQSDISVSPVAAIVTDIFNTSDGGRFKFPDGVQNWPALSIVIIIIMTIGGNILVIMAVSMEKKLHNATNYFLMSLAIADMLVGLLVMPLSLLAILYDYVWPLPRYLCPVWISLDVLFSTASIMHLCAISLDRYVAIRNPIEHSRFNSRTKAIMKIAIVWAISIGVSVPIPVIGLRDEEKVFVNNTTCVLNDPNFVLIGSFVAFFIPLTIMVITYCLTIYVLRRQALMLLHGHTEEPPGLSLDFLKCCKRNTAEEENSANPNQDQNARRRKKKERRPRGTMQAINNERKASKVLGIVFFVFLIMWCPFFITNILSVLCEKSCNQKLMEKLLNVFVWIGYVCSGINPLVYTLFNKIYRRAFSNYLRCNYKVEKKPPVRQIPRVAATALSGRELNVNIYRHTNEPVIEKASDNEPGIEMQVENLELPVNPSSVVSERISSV

[8] = molecular target: T4, Alpha-1A adrenergic receptor (Homo sapiens, UniProt P35348); experiment: as §1, with “ADRA1A” for “HTR1D”
T4 sequence (P35348 whole entry): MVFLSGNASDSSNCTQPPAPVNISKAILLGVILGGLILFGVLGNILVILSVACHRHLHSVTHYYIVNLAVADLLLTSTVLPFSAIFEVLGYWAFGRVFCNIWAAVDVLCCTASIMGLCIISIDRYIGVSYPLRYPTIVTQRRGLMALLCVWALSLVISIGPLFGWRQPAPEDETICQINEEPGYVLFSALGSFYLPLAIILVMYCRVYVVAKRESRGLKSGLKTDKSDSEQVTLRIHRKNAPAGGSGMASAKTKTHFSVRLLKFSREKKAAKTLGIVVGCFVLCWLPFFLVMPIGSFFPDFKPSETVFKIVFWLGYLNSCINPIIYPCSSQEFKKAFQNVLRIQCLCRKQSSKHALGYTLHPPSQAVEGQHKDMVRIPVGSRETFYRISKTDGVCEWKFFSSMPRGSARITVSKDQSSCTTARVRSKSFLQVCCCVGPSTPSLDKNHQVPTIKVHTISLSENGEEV

Histamine H1 receptor = Histamine H1 receptor (Homo sapiens, UniProt P35367); experiment: as §1, with “HRH1” for “HTR1D”
[9] = molecular target: 5-hydroxytryptamine receptor 2A (Homo sapiens, UniProt P28223); experiment: as §1, with “HTR2A” for “HTR1D”
[10] = molecular target: T5, 5-hydroxytryptamine receptor 3A (Homo sapiens, UniProt P46098); experiment: as §1, with “HTR3A” for “HTR1D”
T5 sequence (P46098 whole entry): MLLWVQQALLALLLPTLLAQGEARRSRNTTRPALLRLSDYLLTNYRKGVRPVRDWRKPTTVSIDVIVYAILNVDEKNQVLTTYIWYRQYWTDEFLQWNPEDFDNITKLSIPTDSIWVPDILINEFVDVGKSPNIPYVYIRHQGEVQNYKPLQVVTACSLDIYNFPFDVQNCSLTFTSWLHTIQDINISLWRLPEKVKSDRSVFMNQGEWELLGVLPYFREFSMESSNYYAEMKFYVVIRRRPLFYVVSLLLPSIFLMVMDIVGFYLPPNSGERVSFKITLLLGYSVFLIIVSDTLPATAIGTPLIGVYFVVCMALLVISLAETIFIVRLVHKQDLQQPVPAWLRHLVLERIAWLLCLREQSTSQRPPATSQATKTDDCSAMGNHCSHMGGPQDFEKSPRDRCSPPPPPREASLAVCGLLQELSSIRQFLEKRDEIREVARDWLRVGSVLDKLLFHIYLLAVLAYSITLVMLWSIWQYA

[11] = molecular target: T6, Muscarinic acetylcholine receptor M5 (Homo sapiens, UniProt P08912); experiment: as §1, with “CHRM5” for “HTR1D”
T6 sequence (P08912 whole entry): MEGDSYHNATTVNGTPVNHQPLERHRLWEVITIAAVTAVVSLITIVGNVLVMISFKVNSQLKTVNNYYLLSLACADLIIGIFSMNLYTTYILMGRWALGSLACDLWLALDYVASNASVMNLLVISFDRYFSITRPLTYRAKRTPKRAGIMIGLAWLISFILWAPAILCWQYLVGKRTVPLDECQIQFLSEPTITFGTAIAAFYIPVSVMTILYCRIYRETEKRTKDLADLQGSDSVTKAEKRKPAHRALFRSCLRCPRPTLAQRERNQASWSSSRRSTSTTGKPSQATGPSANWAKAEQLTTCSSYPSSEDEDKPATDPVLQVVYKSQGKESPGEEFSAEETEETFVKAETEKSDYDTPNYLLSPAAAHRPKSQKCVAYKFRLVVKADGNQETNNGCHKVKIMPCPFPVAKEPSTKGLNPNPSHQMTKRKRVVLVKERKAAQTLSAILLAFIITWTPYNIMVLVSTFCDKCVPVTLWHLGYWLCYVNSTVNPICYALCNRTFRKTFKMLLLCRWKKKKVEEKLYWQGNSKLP

[12] = molecular target: T7, 5-hydroxytryptamine receptor 1A (Homo sapiens, UniProt P08908); experiment: as §1, with “HTR1A” for “HTR1D”
T7 sequence (P08908 whole entry): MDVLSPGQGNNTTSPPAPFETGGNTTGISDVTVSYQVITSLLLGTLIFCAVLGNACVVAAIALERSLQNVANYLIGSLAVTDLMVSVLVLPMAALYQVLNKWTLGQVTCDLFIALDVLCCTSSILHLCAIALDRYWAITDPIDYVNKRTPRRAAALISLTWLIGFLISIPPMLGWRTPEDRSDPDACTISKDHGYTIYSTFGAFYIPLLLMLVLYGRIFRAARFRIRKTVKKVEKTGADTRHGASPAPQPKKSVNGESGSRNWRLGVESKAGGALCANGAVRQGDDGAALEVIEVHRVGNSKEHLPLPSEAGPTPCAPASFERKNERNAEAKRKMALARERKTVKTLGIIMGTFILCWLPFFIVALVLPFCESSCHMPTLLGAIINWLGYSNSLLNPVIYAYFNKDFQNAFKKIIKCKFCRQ

[13] = molecular target: 5-hydroxytryptamine receptor 1B (Homo sapiens, UniProt P28222); experiment: as §1, with “HTR1B” for “HTR1D”
[14] = molecular target: 5-hydroxytryptamine receptor 5A (Homo sapiens, UniProt P47898); experiment: as §1, with “HTR5A” for “HTR1D”
[15] = molecular target: 5-hydroxytryptamine receptor 7 (Homo sapiens, UniProt P34969); experiment: as §1, with “HTR7” for “HTR1D”
[16] = molecular target: T8, Alpha-2B adrenergic receptor (Homo sapiens, UniProt P18089); experiment: as §1, with “ADRA2B” for “HTR1D”
T8 sequence (P18089 whole entry): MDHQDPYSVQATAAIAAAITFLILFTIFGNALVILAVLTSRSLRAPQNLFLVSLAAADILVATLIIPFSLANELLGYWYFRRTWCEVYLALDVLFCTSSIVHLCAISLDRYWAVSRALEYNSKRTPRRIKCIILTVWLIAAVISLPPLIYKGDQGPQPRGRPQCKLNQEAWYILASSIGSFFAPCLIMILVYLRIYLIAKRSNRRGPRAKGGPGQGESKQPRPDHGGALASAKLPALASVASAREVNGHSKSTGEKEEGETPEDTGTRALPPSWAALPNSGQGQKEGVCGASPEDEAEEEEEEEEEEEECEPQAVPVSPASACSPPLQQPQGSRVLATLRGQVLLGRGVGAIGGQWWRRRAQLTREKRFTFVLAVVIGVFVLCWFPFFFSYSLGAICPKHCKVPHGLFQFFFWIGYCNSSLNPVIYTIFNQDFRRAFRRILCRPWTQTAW

Chain of Sigma intracellular receptor 2 (Q5BJF2 whole entry): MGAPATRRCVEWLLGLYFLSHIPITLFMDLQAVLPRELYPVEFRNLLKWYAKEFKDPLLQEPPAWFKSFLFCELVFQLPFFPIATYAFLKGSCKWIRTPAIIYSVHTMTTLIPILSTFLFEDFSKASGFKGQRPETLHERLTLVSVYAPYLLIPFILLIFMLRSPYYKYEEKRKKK
Chain of Sigma non-opioid intracellular receptor 1 (Q99720 whole entry): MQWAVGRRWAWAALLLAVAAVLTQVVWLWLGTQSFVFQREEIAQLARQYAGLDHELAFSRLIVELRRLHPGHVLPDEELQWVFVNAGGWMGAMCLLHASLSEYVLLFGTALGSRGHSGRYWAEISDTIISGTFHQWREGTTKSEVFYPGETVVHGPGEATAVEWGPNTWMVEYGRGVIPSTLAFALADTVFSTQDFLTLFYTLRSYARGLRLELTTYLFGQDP
Chain of 5-hydroxytryptamine receptor 1D (P28221 whole entry): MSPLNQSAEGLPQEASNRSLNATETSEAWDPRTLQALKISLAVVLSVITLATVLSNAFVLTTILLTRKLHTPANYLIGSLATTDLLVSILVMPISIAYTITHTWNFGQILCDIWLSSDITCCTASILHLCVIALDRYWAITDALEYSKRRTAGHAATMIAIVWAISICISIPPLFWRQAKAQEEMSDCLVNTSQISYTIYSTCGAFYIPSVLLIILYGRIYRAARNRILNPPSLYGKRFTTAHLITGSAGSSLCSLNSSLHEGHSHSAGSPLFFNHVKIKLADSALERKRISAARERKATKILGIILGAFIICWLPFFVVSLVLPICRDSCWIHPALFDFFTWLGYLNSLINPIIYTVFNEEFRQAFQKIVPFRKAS
Chain of D(3) dopamine receptor (P35462 whole entry): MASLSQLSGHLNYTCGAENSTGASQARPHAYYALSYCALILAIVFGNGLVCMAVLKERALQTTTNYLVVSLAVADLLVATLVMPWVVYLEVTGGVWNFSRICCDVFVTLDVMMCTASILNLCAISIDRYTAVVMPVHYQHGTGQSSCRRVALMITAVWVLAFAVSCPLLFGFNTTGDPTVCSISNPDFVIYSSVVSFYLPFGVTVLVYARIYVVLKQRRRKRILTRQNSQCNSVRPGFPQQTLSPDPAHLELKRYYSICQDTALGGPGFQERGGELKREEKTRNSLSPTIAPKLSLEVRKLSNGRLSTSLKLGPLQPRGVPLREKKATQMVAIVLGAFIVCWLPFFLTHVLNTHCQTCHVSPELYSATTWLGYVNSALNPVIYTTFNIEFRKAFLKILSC
Chain of 5-hydroxytryptamine receptor 5A (P47898 whole entry): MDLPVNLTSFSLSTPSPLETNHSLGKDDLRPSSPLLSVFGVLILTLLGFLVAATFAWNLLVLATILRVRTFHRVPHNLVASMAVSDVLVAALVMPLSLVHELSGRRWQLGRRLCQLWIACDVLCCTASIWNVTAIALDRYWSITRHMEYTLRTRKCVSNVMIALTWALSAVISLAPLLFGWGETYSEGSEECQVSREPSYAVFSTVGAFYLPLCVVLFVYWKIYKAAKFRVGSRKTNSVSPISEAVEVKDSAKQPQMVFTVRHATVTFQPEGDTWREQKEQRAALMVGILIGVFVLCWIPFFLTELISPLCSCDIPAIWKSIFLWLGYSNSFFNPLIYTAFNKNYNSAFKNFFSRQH
Chain of 5-hydroxytryptamine receptor 2A (P28223 whole entry): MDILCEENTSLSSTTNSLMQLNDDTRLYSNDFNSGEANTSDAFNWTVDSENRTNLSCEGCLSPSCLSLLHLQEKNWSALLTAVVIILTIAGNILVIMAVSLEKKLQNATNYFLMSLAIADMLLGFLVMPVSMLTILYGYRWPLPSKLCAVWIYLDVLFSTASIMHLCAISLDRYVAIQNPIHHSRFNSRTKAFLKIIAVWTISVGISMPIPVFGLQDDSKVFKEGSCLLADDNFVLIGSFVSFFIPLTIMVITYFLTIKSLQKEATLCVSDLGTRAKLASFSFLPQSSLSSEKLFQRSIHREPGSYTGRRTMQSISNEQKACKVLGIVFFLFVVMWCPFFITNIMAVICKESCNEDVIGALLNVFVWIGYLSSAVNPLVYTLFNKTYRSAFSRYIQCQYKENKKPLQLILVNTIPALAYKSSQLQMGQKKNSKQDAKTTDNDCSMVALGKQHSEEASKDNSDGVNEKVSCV
Chain of 5-hydroxytryptamine receptor 2B (P41595 whole entry): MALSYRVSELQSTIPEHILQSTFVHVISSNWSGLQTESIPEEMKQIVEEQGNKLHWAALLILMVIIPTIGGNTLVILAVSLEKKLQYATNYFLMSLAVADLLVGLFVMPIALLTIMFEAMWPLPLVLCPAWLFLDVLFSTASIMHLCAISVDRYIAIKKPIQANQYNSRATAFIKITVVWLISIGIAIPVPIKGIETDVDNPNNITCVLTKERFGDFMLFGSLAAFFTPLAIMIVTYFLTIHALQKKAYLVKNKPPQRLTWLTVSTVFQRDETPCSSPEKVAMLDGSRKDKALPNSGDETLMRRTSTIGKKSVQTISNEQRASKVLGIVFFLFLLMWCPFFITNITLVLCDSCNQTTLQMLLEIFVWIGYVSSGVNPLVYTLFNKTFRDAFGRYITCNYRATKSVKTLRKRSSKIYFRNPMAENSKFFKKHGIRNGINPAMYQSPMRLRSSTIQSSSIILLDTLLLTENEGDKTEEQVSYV
Chain of 5-hydroxytryptamine receptor 1B (P28222 whole entry): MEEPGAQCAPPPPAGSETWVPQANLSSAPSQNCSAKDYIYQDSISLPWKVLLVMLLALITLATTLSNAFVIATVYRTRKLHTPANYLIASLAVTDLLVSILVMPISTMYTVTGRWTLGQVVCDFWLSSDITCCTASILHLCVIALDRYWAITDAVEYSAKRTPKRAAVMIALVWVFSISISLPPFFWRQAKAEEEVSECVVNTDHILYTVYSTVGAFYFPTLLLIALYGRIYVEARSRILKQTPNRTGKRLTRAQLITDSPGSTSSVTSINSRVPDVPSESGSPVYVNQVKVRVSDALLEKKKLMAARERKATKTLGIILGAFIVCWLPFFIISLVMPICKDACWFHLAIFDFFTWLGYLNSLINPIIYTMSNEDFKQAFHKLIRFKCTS
Chain of 5-hydroxytryptamine receptor 7 (P34969 whole entry): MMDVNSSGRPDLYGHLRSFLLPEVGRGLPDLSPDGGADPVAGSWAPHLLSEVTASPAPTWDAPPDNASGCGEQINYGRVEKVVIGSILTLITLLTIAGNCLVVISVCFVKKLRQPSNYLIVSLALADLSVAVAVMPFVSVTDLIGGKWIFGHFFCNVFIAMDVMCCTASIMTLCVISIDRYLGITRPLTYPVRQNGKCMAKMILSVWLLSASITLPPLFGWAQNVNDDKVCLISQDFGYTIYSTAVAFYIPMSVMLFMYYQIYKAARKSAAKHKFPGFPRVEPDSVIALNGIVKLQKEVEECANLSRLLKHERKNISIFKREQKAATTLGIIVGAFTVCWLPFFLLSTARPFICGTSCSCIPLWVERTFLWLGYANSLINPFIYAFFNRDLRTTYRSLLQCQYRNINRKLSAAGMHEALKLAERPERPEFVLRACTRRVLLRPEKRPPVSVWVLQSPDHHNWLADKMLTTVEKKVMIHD
Chain of Histamine H1 receptor (P35367 whole entry): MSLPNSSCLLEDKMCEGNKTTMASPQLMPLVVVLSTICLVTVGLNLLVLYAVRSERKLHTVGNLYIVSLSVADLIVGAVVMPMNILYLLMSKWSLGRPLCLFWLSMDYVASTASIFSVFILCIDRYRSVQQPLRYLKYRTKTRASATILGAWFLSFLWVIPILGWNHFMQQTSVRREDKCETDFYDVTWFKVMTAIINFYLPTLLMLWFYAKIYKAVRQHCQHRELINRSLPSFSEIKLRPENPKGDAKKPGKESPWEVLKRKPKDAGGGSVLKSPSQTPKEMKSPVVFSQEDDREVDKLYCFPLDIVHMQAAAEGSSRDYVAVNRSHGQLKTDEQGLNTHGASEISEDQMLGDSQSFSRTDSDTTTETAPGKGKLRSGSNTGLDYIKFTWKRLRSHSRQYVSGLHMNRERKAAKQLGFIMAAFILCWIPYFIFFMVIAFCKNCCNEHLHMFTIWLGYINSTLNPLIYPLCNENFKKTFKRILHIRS

| SMILES | Ki [1] | Ki [2] | Ki [3] | Ki [4] | Ki [5] | Ki [6] | Ki (D(3) dopamine receptor) | Ki [7] | Ki [8] | Ki (Histamine H1 receptor) | Ki [9] | Ki [10] | Ki [11] | Ki [12] | Ki [13] | Ki [14] | Ki [15] | Ki [16] |
| --- | --- | --- | --- | --- | --- | --- | --- | --- | --- | --- | --- | --- | --- | --- | --- | --- | --- | --- |
| CCCCN1CCC(COC(=O)c2cc(Cl)c(N)c3c2OCCO3)CC1 | 3780 nM | 64.8 nM | 31.7 nM | 52 nM | 1530 nM | 673 nM | 669 nM | 635 nM | 1850 nM | 4.66 µM | 964 nM | 1310 nM |  |  |  |  |  |  |
| Cc1nn(C)c(C)c1-c1cccc2c1CC[C@H](N(C)C)C2 | 5.5 nM | 1120 nM | 158 nM |  | 647 nM |  |  |  |  |  |  | 261 nM | 308 nM | 2420 nM | 10.2 nM | 75.2 nM | 2.3 nM | 108 nM |
